Source: US12240849B2, “Nitrogen-containing spiro derivative as RET inhibitor” (GUANGZHOU BAIYUNSHAN PHARMACEUTICAL HOLDINGS CO., LTD. …, priority 2019, dated 2025)
Read-outs that look alike come from different tables or passages of the source.

What was measured:
[1] = Body weight of mice in Ba/F3 KIF5B-RET-V804L xenograft experiment; assay type: in vivo, NPSG mice; details: 10 mg/kg p.o. BID, Ba/F3 KIF5B-RET-V804L model, in g (unit assumed)
Method: (§1) 4) After inoculation, the volume and weight of tumors were measured once a week. When the average tumor volume reached 124.5 mm^3, mice with the tumor volume between 82.9 mm^3 and 145.4 mm^3 were selected and randomly grouped according to the volume and weight of tumors with 6 mice in each group. The administration was started immediately after the grouping. The start date of the administration was recorded as day 0.
(§2) 5) After the administration was started, the mice were continuously administrated for 9 days, and the body weight and tumor volume of the mice were measured on day 3, day 6, and day 9.

[2] = test system: Ba/F3 KIF5B-RET-V804L tumor cell xenograft; experiment: Efficacy in Ba/F3 KIF5B-RET-V804L tumor cell xenograft model; assay type: in vivo, NPSG mice
Description: 1) Ba/F3 KIF5B-RET-V804L cells were resuscitated and cultured in vitro to obtain 5×10^7 cells.
2) Forty-five 6-8 week old female mice were adaptively fed for 1 week and weighed.
3) Ba/F3 KIF5B-RET-V804L tumor cells were subcutaneously inoculated into the right scapula position of the mice so as to establish the engineered cell line Ba/F3 KIF5B3-RET-V804L tumor cell xenograft model. Inoculation conditions were as follows: (see Table 3)
as §1, §2
6) Data statistics were analyzed by one-way ANOVA. Variance homogeneity difference of data was firstly detected. If there was no difference in the variance homogeneity, an LSD method was used for analysis; and if there was a difference in the variance homogeneity, Dunnett's T3 was selected for data analysis. All data were analyzed by using SPSS 17.0. A p value less than 0.05 was considered a significant difference.

[3] = Body weight of mice in Ba/F3 KIF5B-RET xenograft experiment; assay type: in vivo, NPSG mice; details: Ba/F3 KIF5B-RET model, in g (unit assumed)
Method: as §1, with “104” for “124.5”, “mice” for “mice with the tumor volume between 82.9 mm^3 and 145.4 mm^3”, “were” for “were selected and”
(§3) 5) After administration was started, the body weight and tumor volume of the mice were measured respectively on the day 0, day 3, day 6, and day 10.

[4] = test system: Ba/F3 KIF5B-RET tumor cell xenograft; experiment: Efficacy in engineered cell line Ba/F3 KIF5B-RET xenograft model; assay type: in vivo, NPSG mice; details: for TGI: TGI = 1-ΔT/ΔC; for Tumor Volume on Day 10 / Tumor Volume on Day 0: average ± standard error
Description: To verify efficacy of drugs to be tested alone on the engineered cell line Ba/F3 KIF5B-RET xenograft model of NPSG mice.
1) Ba/F3 KIF5B-RET cells were resuscitated and cultured in vitro to obtain 4×10^7 cells.
2) Sixty 6-8 week old female NPSG mice were adaptively fed for one week and weighed.
3) The Ba/F3 KIF5B-RET cells were subcutaneously inoculated on right scapula of mice according to the inoculation conditions obtained in the pre-test (see Table 7) to establish the Ba/F3 KIF5B-RET tumor cell xenograft model of NPSG mice.
as §1, with “104” for “124.5”, “mice” for “mice with the tumor volume between 82.9 mm^3 and 145.4 mm^3”, “were” for “were selected and”
as §3
6) For the experiment of two groups, a T-Test analysis method was used. For a comparison of three or more groups, One-Way ANOVA was used for analysis. For comparing potential synergistic effects, Two-Way ANOVA was used for analysis. All data were analyzed by using SPSS 17.0. A p value less than 0.05 was considered to be a significant difference, and a p value less than 0.01 was considered to be a very significant difference.

[5] = Pharmacokinetic evaluation in mice; assay type: in vivo, CD-1 mice (male); details: male, mouse, plasma, CD-1 mice; for bioavailability: read-out: Bioavailability F; for AUC: read-out: Integrated Concentration AUC; for clearance: read-out: Clearance Rate; for half-life: read-out: Half-life T1/2 (converted)
Description: Experiment objective: to test the pharmacokinetic of compound in mice
Experiment material: CD-1 mice (male)
Experiment operations: the pharmacokinetic characteristics of rodents after intravenous injection and oral administration of the compounds were obtained by using a standard scheme. In the experiment, candidate compounds were formulated into clear solutions, and mice were administrated by a single intravenous injection and oral administration. The solvent of the intravenous injection and oral administration was 10% PEG400 (polyethylene glycol 400)+90%(10% hydroxypropyl-β-cyclodextrin). The whole blood samples were collected within 24 hours. All the blood samples were added respectively into labeled plastic centrifuge tubes in which 0.5 M K2-EDTA anticoagulants were pre-added. The blood samples were collected, and centrifuged at 3,000 g for 10 min at 4° C. The supernatant plasma was collected by absorbing and quickly placed in dry ice to keep at −20° C. or lower. Blood concentrations were quantitatively analyzed by using an LC-MS/MS analysis method, and pharmacokinetic parameters, such as peak concentration, peak time, clearance rate, half-life, area under drug concentration-time curve, bioavailability, etc. were calculated.

V804M mutant RET = molecular target: T1, V804M mutant RET (Homo sapiens, UniProt P07949, V804M); experiment: 33P isotope-labeled kinase activity test, V804M mutant RET; assay type: biochemical; details: 33P-ATP at Km concentration
T1 construct: purchased Reaction Biology Corp
T1 sequence (P07949 29-1114 V804M): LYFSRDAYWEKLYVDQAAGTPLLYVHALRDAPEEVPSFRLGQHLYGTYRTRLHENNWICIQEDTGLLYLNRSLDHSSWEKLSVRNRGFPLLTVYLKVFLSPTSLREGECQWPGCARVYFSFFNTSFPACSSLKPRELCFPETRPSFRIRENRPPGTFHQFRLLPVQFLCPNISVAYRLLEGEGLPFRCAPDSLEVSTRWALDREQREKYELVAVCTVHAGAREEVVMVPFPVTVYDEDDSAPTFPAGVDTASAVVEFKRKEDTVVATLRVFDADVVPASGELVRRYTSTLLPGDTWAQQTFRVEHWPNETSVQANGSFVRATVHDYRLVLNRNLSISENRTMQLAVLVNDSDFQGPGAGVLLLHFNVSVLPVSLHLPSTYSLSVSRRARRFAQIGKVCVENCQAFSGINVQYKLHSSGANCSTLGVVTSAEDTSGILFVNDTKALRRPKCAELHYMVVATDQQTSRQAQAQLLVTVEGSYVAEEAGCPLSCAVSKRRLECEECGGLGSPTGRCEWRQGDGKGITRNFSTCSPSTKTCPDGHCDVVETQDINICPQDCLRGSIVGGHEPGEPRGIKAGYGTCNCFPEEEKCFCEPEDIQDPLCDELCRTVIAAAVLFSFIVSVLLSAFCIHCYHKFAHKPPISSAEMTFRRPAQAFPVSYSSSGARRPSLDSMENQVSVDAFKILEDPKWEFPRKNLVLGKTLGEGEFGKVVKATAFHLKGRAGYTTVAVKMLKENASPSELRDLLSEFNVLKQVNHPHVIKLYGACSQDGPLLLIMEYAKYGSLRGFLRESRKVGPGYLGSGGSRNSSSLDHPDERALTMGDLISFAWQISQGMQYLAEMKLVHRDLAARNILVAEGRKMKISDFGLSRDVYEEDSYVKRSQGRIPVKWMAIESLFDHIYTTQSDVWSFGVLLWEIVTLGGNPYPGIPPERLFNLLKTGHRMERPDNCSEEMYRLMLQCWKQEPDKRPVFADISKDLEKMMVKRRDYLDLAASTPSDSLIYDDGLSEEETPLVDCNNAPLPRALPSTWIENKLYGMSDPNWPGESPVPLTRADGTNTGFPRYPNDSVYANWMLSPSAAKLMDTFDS
Method: (§4) ^33P isotope-labeled kinase activity test (Reaction Biology Corp) was used to determine IC50 value so as to evaluate an inhibitory ability of a test compound on human wild-type, V804M and V804L mutant RET.
(§5) Buffer solution condition: 20 mM 4-(2-hydroxyethyl)piperazine-1-ethanesulfonic acid (Hepes) (pH 7.5), 10 mM MgCl2, 1 mM 1,2-bis[2-[bis(carboxymethyl)amino]ethoxy]ethane (EGTA), 0.02% polyoxyethylene lauryl ether (Brij35), 0.02 mg/mL bovine serum albumin (BSA), 0.1 mM of Na3VO4, 2 mM dithiothreitol (DTT) and 1% DMSO.
(§6) Compound treatment: the compound to be tested was dissolved in 100% DMSO, and then the obtained solution was continuously diluted with DMSO by using Integra Viaflo Assist until a specific concentration was obtained.
(§7) Test procedures: a substrate was dissolved in the newly prepared buffer solution, a kinase to be tested was added therein, and the obtained solution was gently and evenly mixed. DMSO solution in which a compound to be test was dissolved was added in the above evenly mixed reaction solution by using an acoustic technology (Echo 550), and then incubated for 20 minutes at room temperature. […] Kinase activity data was expressed by comparing the kinase activity of the compound to be tested with the kinase activity of a blank group (containing only DMSO). The IC50 value was obtained by curve fitting with Prism4 software (GraphPad).

human wild-type RET = molecular target: T2, human wild-type RET (Homo sapiens, UniProt P07949); experiment: 33P isotope-labeled kinase activity test, wild-type RET; assay type: biochemical; details: 33P-ATP at Km concentration
T2 construct: purchased Reaction Biology Corp
T2 sequence (P07949 29-1114): as the sequence (P07949 29-1114 V804M) above, with M776V counted along it
Method: as §4, §5, §6, §7

V804L mutant RET = molecular target: T3, V804L mutant RET (Homo sapiens, UniProt P07949, V804L); experiment: 33P isotope-labeled kinase activity test, V804L mutant RET; assay type: biochemical; details: 33P-ATP at Km concentration
T3 construct: purchased Reaction Biology Corp
T3 sequence (P07949 29-1114 V804L): as the sequence (P07949 29-1114 V804M) above, with M776L counted along it
Method: as §4, §5, §6, §7

[6] = 10 mg/kg, oral administration 10 mpk
[7] = iv, 2 mg/kg, injection administration 2 mpk

Row | Structure (SMILES) | Body weight ([1]; day 0) | Body weight ([1]; day 3) | Body weight ([1]; day 6) | Body weight ([1]; day 9) | ΔVAC ([2]; 10 mg/kg p.o. BID Day 0-Day 9) | Body weight ([3]; day 0, 10 mg/kg p.o. BID) | Body weight ([3]; day 3, 10 mg/kg p.o. BID) | Body weight ([3]; day 6, 10 mg/kg p.o. BID) | Body weight ([3]; day 10, 10 mg/kg p.o. BID) | ΔVAC ([4]; 10 mg/kg p.o. BID Day 0-Day 10) | bioavailability [5, 6] | AUC [5, 6] | clearance [5, 7] | half-life [5, 7] | AUC [5, 7] | IC50 (human wild-type RET) | other results
1 | Cc1cc(Nc2cc(C)nc(C3CCC4(CC3)OCCN(C(C)c3ccc(-n5cc(F)cn5)nc3)C4=O)n2)[nH]n1 (single isomer, unassigned) [Compound 014] | 19.5 ± 0.53 | 20.3 ± 0.72 | 20.5 ± 0.72 | 20.3 ± 0.84 | −6% | 18 ± 0.57 | 18.5 ± 0.47 | 18.5 ± 0.75 | 18.6 ± 0.62 | 1% | 53.7% | 49.6 µM·h | 0.099 L/h/kg | 2.53 h | 16.4 µM·h | – | –
2 | Cc1cc(Nc2cc(C)[nH]n2)nc(N2CCC3(CC2)OCCN(C(C)c2ccc(-n4cc(F)cn4)nc2)C3=O)n1 (stereo not drawn) [Compound 018] | 18.6 ± 0.49 | 18.8 ± 0.48 | 18.6 ± 0.87 | 19 ± 0.64 | −7% | 17.7 ± 0.47 | 18.2 ± 0.51 | 18.5 ± 0.57 | 17.7 ± 0.86 | 10% | 59.7% | 27.7 µM·h | 0.393 L/h/kg | 2.56 h | 9.3 µM·h | 1.29 nM | TGI ([2]; 10 mg/kg p.o. BID Day 0-Day 9, TGI = 1-ΔT/ΔC): 107%; Tumor Volume on Day 9 ([2]; 10 mg/kg p.o. BID Day 0-Day 9, average ± standard error): 75.5 ± 7.11 mm^3; Tumor Volume on Day 0 ([2]; 10 mg/kg p.o. BID, average ± standard error): 125 ± 3.96 mm^3; IC50 (V804M mutant RET): 1.97 nM; Body weight ([3]; day 0, 20 mg/kg p.o. BID): 17.6 ± 0.58; Body weight ([3]; day 3, 20 mg/kg p.o. BID): 18.1 ± 0.56; Body weight ([3]; day 6, 20 mg/kg p.o. BID): 18.3 ± 0.53; Body weight ([3]; day 10, 20 mg/kg p.o. BID): 18.5 ± 0.63; TGI ([4]; 10 mg/kg p.o. BID Day 0-Day 10): 90%; Tumor Volume on Day 10 ([4]; 10 mg/kg p.o. BID Day 0-Day 10): 205.1 ± 29.87 mm^3; Tumor Volume on Day 0 ([4]; 10 mg/kg p.o. BID): 106.3 ± 7.14 mm^3; ΔVAC ([4]; 20 mg/kg p.o. BID Day 0-Day 10): −7%; TGI ([4]; 20 mg/kg p.o. BID Day 0-Day 10): 107%; Tumor Volume on Day 10 ([4]; 20 mg/kg p.o. BID Day 0-Day 10): 32.8 ± 6.81 mm^3; Tumor Volume on Day 0 ([4]; 20 mg/kg p.o. BID): 102.2 ± 7.09 mm^3; IC50 (V804L mutant RET): 1.23 nM
3 | Cc1cc(Nc2cc(C)nc(N3CCC4(CC3)CCN(C(C)c3ccc(-n5cc(F)cn5)nc3)C4)n2)[nH]n1 (stereo not drawn) [Compound 003-h] | – | – | – | – | – | – | – | – | – | – | – | – | – | – | – | 73.9 nM | –
